Holding throughout (type): cell-based
One series deals with CD34+ cord blood cells. The series can be described thus: Apoptosis in primary cells. The settings on record: CD34+ cord blood cells of healthy controls, 500 nM, 24 hours. Here is the method:
(§1) a total of 1×10^6 cellsderived from patients or cell lines were resuspended in 1 mL culture medium and incubated with the indicated dosages of OTX015 prepared freshly from 1 mM stock solution in DMSO. Control cells were incubated with the corresponding amount of dimethyl sulfoxide (DMSO 0.2-1%) to exclude toxicity of the excipient. Apoptotic cells were detected by cytofluorometric analysis using a FACScan (Becton Dickinson, Mountain View, USA). Cells were stained with propidium iodide (PI; 5 μg/mL; Becton Dickinson) and concomitantly for 15 minutes at RT with annexin-V-FITC (Becton Dickinson) according to the manufacturer's instructions to determine outer membrane phosphatidyl serine exposure. Data were analyzed with the Flowjo (Tree Star Inc., Ashland, USA) flow cytometry software.
(§2) The efficacy of Compound (1-1) to induce apoptosis in primary cells was investigated. CD34+ and CD34− cells were obtained by positive selection with CD34+ microbeads from cord blood (healthy controls) and one AML patient.

The test system of the next series is CD34− cord blood cells. The series can be described thus: Apoptosis in primary cells. The settings on record: CD34− cord blood cells of healthy controls, 24 hours. Here is the method: as §1, §2
The subject of series [1] is CD34+ and CD34− AML cells. The series can be described thus: Apoptosis in primary cells. The following applies: CD34+ and CD34− cells of one AML patient, 24 hours. Here is the method:
as §1, §2

The test system of another series is Ph+ALL patient cells. The series can be described thus: Apoptosis in primary patient cells treated ex vivo. The settings on record: 1 Ph+ ALL patient sample ex vivo, 72 h, 250 and 500 nM. Here is the method:
(§3) FIGS. 44A-44D show effects of OTX015 on primary patient cells. 5 samples from AML patients and 2 ALL, including 1 ALL Ph+ patient, were treated ex vivo with OTX015. OTX015 induced apoptosis in primary AML patient samples at various degrees ranging from 35-85% (FIG. 6). The Ph+ALL patient appeared to be resistant. OTX015 induced apoptosis in primary cells of the AML and ALL patients. Mononuclear cells were obtained from bone marrow (BM) or peripheral blood (PB) from AML and ALL patients. Cells were exposed 72 h with 250 and 500 nM of OTX015 and apoptosis was assessed by annexin V and PI staining. Results are shown with means±SD from duplicates of one experiment.
(§4) Mononuclear cells (MNC) from the bone marrow (BM) were isolated by Ficoll-Paque PLUS density gradient (Amersham Biosciences, Sunnyvale, USA). Patient cells were maintained in IMDM (Gibco) supplemented with 10% heat-inactivated fetal calf serum, 2 mM L-glutamine, 100 IU/mL penicillin, and 100 µg/mL streptomycin without growth factors.
(§5) a total of 1×10^6 cellsderived from patients or cell lines were resuspended in 1 mL culture medium and incubated with the indicated dosages of OTX015 prepared freshly from 1 mM stock solution in DMSO. […] Apoptotic cells were detected by cytofluorometric analysis using a FACScan (Becton Dickinson, Mountain View, USA). […] Data were analyzed with the Flowjo (Tree Star Inc., Ashland, USA) flow cytometry software. […]

The subject of series [2] is primary AML patient samples. The series can be described thus: Apoptosis in primary patient cells treated ex vivo. The settings on record: 5 AML patient samples ex vivo, 72 h, 250 and 500 nM. Here is the method:
as §3, §4, §5

A further series deals with ALL cell lines. The series can be described thus: MTT assay, statement over all ALL cell lines. The settings on record: MTT at 72 h, span over ALL cell lines; read-out: GI50 across all ALL cell lines. Here is the method:
Different representative cell lines for ALL including Jurkat cells (T-ALL), RS 4-11 (MLL-AF4 B-precursor ALL), TO′M-1, BV173 (both Ph+ALL) and AML including K562 (Ph+CML in blast crisis,), HL-60 (NRAS driven AML2), NOMO1 (MLL-AF9 driven AML), KG1 (BMP-FGRF+AML6) and its more immature subtype KG1a were cultured in RPMI 1640 (Gibco Invitrogen, Basel, Switzerland) supplemented with 10% or 20% heat-inactivated fetal calf serum respectively, 2 mM L-glutamine, 100 IU/mL penicillin, and 100 µg/mL streptomycin.
MTT-assay: cells were seeded first into 24-well plates at the density of […] per well to avoid variations of concentrations in smaller volumes and treated with different doses of OTX015 prepared freshly from 1 mM stock solution in DMSO. Cells were transferred to 96-well plates for MTT-assay. Untreated cells and cells treated with equal amounts of DMSO (0.2-1%) used for dilution of OTX015 were used as controls. The 3-(4,5-dimethylthiazol-2-yl)-2,5-diphenyltetrazolium bromide (MTT) (Molecular Probes, Eugene, USA) was prepared as a stock of 5 mg/ml in PBS. […] Cells were then lysed with 25% SDS lysis buffer and absorbance was read at 570 nm. […] GI50 values were calculated with Prism v5 software (GraphPad Inc., La Jolla, USA).
AML and ALL cell lines were exposed to increasing concentrations of compound (1-1), (0.1 nM-10 μM). […] GI50 values were expressed as means from 3 independent experiments.
Background: Tetrazolium assays rely on reduction of a dye to a coloured formazan, in cell work by metabolically active cells.

Series [3] deals with BRD2, BRD3, BRD4 and c-MYC. The series can be described thus: Immunoblot of BRD proteins and c-MYC in leukemia cell lines. The settings on record: different leukemia cell lines, 100 nM, within 3 hours.
Another series deals with c-MYC in Jurkat. The series is described as follows: Immunoblot (protein level) in Jurkat. The following applies: 500 nM, 48 h and 72 h. Here is the method: FIGS. 43A-43L illustrate effects of OTX015 at the protein level for BRD 4, BRD2 and BRD 3 as well as c-MYC. […] AML cell lines HL60, K562 (FIGS. 43A-43C; FIG. 43D-43F) and ALL cell lines Jurkat and RS4-11 (FIG. 43G-43I; FIG. 4JD-43L) were treated with OTX015 at 500 nM and compared to controls exposed to according DMSO. At indicated time-points proteins were extracted and immunoblotted with BRD4, BRD3, BRD2 or c-MYC antibodies after gel electrophoresis. […] One representative experiment out of three is shown.
The membranes were blocked with LiCor blocking buffer (LiCor, Lincoln, Nebr., USA) and incubated with the respective primary antibody: anti-BRD4 (Epitomics 5716-1, Burlingame, USA), anti-BRD3 (ab56342, AbCam, UK), anti-BRD2 (ab37633, AbCam, UK), anti c-MYC (sc-764 (N262), Santa Cruz, USA) and anti-GAPDH (Invitrogen 398600, Grand Island, USA). Blots were stained with either goat anti-rabbit InfraRedDye 680RD or goat anti-mouse InfraRedDye 800CWsecondary antibody (LiCor). Membranes were imaged using a LiCor Odyssey scanner. Boxes were manually placed around each band of interest, which returned near-infrared fluorescent values of raw intensity with intra-lane background subtracted using Odyssey 3.0 analytical software (LiCor).
For orientation: A western blot detects proteins with antibodies after separation by electrophoresis.

The subject of a further series is BRD4, BRD2 and BRD3. The series is described as follows: RQ-PCR of BRD4, BRD2 and BRD3 in leukemia cell lines. The following applies: 250 nM and 500 nM, 48 h.

Description for BRD4, BRD2 and BRD3: The total RNA obtained after extraction with TRIZOL (Invitrogen, Grand Island, USA) were titrated to 1 μg/uL and stored at −80° C. The complementary DNA (cDNA) was synthesized from 1 μg RNA. The RQ-PCR reactions (BRD2, BRD3, BRD4, c-MYC and ABL) were performed in a volume of 25 ul from a tenth of the cDNA (equivalent to 100 ng of RNA) on a thermocycler ABI7900HT in standard mode (1 cycle of 2 minutes at 50° C.-10 minutes at 95° C. followed by 50 cycles of 15 seconds at 95° C.-1 minute at 60° C.).

As to `Cc1sc2c(c1C)C(c1ccc(Cl)cc1)=N[C@@H](CC(=O)Nc1ccc(O)cc1)c1nnc(C)n1-2` [Compound (1-1), 2-[(6S)-4-(4-chlorophenyl)-2,3,9-trimethyl-6H-thienol[3,2-f]-[1,2,4]triazolo[4,3-a][1,4]diazepin-6-yl]-N-(4-hydroxyphenyl)acetamide dihydrate], in the series on CD34+ cord blood cells, the “toxicity (apoptosis) for immature cord blood cells” value is on record as “toxicity for immature CD34+ cells at the 500 nM dose level”. Moreover, in the series on CD34− cord blood cells, the “toxicity (apoptosis) for mature cord blood compartment” value was “remained unaffected”. Moreover, in series [1], the “in vitro induction of apoptosis” value was “induction of apoptosis in a dose dependent manner”. Besides, the “sensitivity to apoptosis induction” value in the series on Ph+ALL patient cells is “resistant”. Further, in series [2], the apoptosis is 35-85%. Further, the GI50 (as a rule, the concentration that inhibits growth by half) with ALL cell lines is 34.2 to 250 nM. Moreover, the “regulation of BRD2, BRD3, BRD4 and c-MYC at the protein level” value in series [3] was “rapid down-regulation of BRD2, BRD3 and BRD4 associated with c-MYC down-regulation”. Further, the c-MYC protein level result in the series on c-MYC in Jurkat was “c-MYC downregulation”. Besides, in the series on BRD4, BRD2 and BRD3, the “down regulation of BRD4, BRD2 or BRD3 at the cDNA level” value is reported as “not able to detect a consistent down regulation”; the “upregulation of BRD3 and BRD2 at the cDNA level” value is “significant upregulation of BRD3 and BRD2 in KG1, K562 and Jurkat and increase of BRD2 in KG1 and HL60”.
